{"source": "paper PMC6381024", "about": "“Probing Anti-inflammatory Properties Independent of NF-κB Through Conformational Constraint of Peptide-Based Interleukin-1 Receptor Biased Ligands” (Frontiers in Chemistry, 2019)", "key": {"retinal microglia": {"system": "retinal microglia", "experiment": "Retinal microglial activation and density (Iba-1 staining) in the OIR model", "format": "in vivo", "conditions": "OIR rat pups, 2 mg/kg/day i.p.; for Effect on microglial activation / morphology: Iba-1 immunohistochemistry", "source_text": "On P5, litters were transferred to a controlled hyperoxic environment (Biospherix OxyCycler A84XOV) and maintained at 80 ± 1% O2, which is used to induce vaso-obliteration of the retinal vasculature. At this timepoint, the vasculature is immature and particularly susceptible to […] insults resulting in vaso-obliteration, a defining characteristic of the early stage of retinopathies in premature infants (Garner and Ashton, [1971]). Control litters were not exposed to hyperoxia and were kept in standard conditions with room air (21% O2). To control for the effects of hyperoxia on the lactation of the dams, dams of hyperoxic litters were switched with dams of control litters on P8.\nIn litters exposed to hyperoxia, pups were randomized to receive phosphate-buffered saline (PBS) vehicle, 2 mg/kg/day of peptides 1, 5, or 6 or 3 mg/kg/day of Kineret from P5 to P10. These doses were determined from our previous study (Rivera et al., [2013]) and administered in twice-daily intra-peritoneal injections titrated to 20 μL per injection with 28-gauge insulin syringes. A total of 6–8 pups were used for each treatment group.\nRetinas were treated at room temperature for 1 h with a blocking solution consisting of 1% bovine serum albumin (BSA), 1% normal goat serum, 0.1% Triton X-100 and 0.05% Tween-20 in PBS. The retinas were then double-labeled overnight at 4°C with gentle shaking in an antibody solution consisting of 1 mM CaCl2, 1% Triton X-100, 1% TRITC-conjugated lectin cell endothelial marker from Bandeiraea simplicifolia (Sigma-Aldrich, St Louis, MO) and a 1:500 dilution of rabbit anti-ionized calcium-binding adapter molecule (Iba)-1 antibody (Wako Chemicals USA) in PBS. The retinas were then washed thrice with PBS and incubated with a secondary antibody solution consisting of 1% BSA, 0.1% Triton X-100, 0.05% Tween-20 and 1:500 Alexa-594-conjugated donkey anti-rabbit IgG (ThermoFisher Scientific, Rockford, IL) in PBS for 2 h at room temperature. Retinas were washed thrice with PBS and then flat-mounted onto glass slides with coverslips and Fluoro-Gel mounting medium (Electron Microscopy Sciences, Hatfield, PA).\nFor assessment of vaso-obliteration, retinas were imaged using an epifluorescence microscope at 10X magnification (Zeiss AxioImager Z2) and version 4.8 of the AxioVision software. Images were captured and stitched together using the software's MosaiX feature. Iba-1 staining was assessed with the same microscope at 20X magnification, and a total of 4 fields per retina were imaged halfway between the optic nerve and the edge of the retina.\nRepresentative images of Iba-1 staining were taken using a laser scanning confocal microscope (Olympus IX81 with Fluoview FV1000 Scanhead) with the Fluoview Software at 30X magnification.\nThe FIJI software was used to the quantify the area of vaso-obliteration in each retina, expressed as a percentage of the area of the whole retina. The number of Iba-1-positive cells was counted using the cell counter plug-in in FIJI, and the average of cell counts in 4 fields per retina was calculated.\nFigure 11 The effects of peptides 1, 5, and 6 on retinal microglial activation and density. Retinas were obtained for immunohistochemistry from rat pups treated with the OIR protocol, and incubated with rabbit anti-iba-1 antibody, followed by donkey anti-rabbit antibody conjugated to Alexa 594. (A) Representative confocal images of retinal microglia at 30X magnification: scale bar 100 μm. (B) Epifluorescence microscopy images at 20 × magnification of retinal microglial density quantified using ImageJ: 4 images per retina were taken at a distance halfway between the optic nerve and the peripheral edge of the retina; n = 5–7 for peptide 1, 5, and 6, and Kineret; n = 8–10 for normoxia and vehicle; ^*p < 0.05, ^****p < 0.0001 relative to the vehicle group. Treatment groups that are not labeled with asterisks are statistically non-significant compared to the vehicle group."}, "[1]": {"system": "thymocyte TF-1 proliferation", "conditions": "ref Jamieson et al., 2009; Boutard et al., 2011; cited from earlier work", "source_text": "Conformational restriction of natural peptides has been used to identify active geometry and to enhance therapeutic potential by mitigating issues such as low oral availability and poor metabolic stability (Carney et al., [2014]; Rubin and Qvit, [2016]; Lubell, [2017]). Since pioneering studies by Freidinger and Veber, the application of Agl residues has proven effective for constraining the backbone sequence to favor β-turn geometry in various peptides (Freidinger et al., [1980], [1982]; Yu et al., [1988]; Zhang et al., [1996]; Aube, [1999]; Perdih and Kikelj, [2006]; Valle et al., [2009]). I ..."}}}
{"substance": "H-D-Arg-D-Tyr-(S)-Agl-D-Val-D-Glu-D-Leu-D-Ala-NH2 [[(3S)-Agl^3]-1]", "values": [{"measurement": "Reduction of microglial density", "setting": "retinal microglia; Iba-1-positive cell counts", "result": "< 20", "unit": "%"}, {"measurement": "Effect on microglial activation / morphology", "setting": "retinal microglia", "result": "no appreciable effect on microglial morphology"}]}
{"substance": "H-D-Arg-D-Tyr-(3R,4S)-Hgl-D-Val-D-Glu-D-Leu-D-Ala-NH2 [[(3R,4S)-Hgl^3]-1]", "values": [{"measurement": "Effect on microglial activation / morphology", "setting": "retinal microglia", "result": "prevented partially the activation of microglia"}]}
{"substance": "H-D-Arg-D-Tyr-(R)-Agl-D-Val-D-Glu-D-Leu-D-Ala-NH2 [[(3R)-Agl^3]-1]", "values": [{"measurement": "Inhibition of IL-1β-induced thymocyte TF-1 proliferation, compared to peptide 1", "setting": "[1]", "result": "significantly diminished activity"}, {"measurement": "Effect on microglial activation / morphology", "setting": "retinal microglia", "result": "no appreciable effect on microglial morphology"}]}
{"substance": "H-D-Arg-D-Tyr-(3S,4R)-Hgl-D-Val-D-Glu-D-Leu-D-Ala-NH2 [[(3S,4R)-Hgl^3]-1]", "values": [{"measurement": "Effect on microglial activation / morphology", "setting": "retinal microglia", "result": "prevented partially the activation of microglia"}]}
{"substance": "H-D-Arg-D-Tyr-D-Thr-D-Val-D-Glu-D-Leu-D-Ala-NH2 [Peptide 1]", "values": [{"measurement": "Effect on microglial activation / morphology", "setting": "retinal microglia", "result": "inactive and ramified"}]}
